Assay results taken from ChEMBL document CHEMBL3352029, “Ring fusion strategy for the synthesis of anthra[2,3-d]oxazole-2-thione-5,10-dione homologues as DNA topoisomerase inhibitors and as antitumor agents” (Eur J Med Chem, 2014).
pIC50: −log10 of the molar value. Activity calls are given as the source filed them. The rule behind the calls is not given here.

Assays:
[1] = Cytotoxicity against human PC3 cells assessed as inhibition of cell growth after 48 hrs by sulforhodamine B assay; assay type: functional, cell-based; details: PC-3, 48 h
[2] = molecular target: T1, DNA topoisomerase 1 (Homo sapiens) (UniProt P11387); assay: Inhibition of human recombinant DNA topoisomerase 1 assessed as reduction in relaxation of supercoiled pHOT DNA at 25 to 50 uM incubated for 45 mins by ethidium bromide staining based gel electrophoresis
T1 sequence (whole entry): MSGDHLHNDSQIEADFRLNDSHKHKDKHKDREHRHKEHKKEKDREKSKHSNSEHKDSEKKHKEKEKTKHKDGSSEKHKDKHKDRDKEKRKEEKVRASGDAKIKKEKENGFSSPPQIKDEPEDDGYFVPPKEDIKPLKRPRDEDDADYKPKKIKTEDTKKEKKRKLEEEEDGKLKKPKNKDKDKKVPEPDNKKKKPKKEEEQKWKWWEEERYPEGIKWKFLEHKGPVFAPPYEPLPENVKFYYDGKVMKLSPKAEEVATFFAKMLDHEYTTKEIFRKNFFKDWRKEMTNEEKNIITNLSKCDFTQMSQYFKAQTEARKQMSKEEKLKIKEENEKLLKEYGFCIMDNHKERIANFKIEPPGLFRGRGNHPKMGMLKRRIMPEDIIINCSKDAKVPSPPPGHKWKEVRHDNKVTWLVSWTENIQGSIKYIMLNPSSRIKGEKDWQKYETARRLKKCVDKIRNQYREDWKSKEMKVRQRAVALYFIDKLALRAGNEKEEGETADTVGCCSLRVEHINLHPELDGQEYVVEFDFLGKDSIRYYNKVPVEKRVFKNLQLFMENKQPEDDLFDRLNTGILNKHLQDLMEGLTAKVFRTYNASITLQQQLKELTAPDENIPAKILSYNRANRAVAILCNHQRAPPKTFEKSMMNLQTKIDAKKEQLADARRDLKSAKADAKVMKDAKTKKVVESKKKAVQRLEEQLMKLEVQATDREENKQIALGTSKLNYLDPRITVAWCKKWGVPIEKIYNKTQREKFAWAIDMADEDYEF

Structure (SMILES): O=C(CN1CCCCC1)Nc1cc2c(cc1O)C(=O)c1ccccc1C2=O
- pIC50 [1]: 4.73

Structure (SMILES): O=C1c2ccccc2C(=O)c2cc3oc(SCc4ccc([N+](=O)[O-])cc4)nc3cc21
- pIC50 [1]: < 4.52

Structure (SMILES): CSc1nc2cc3c(cc2o1)C(=O)c1ccccc1C3=O
- pIC50 [1]: < 4.52

Structure (SMILES): O=C1c2ccccc2C(=O)c2cc3oc(SCc4ccc(F)cc4F)nc3cc21
- pIC50 [1]: < 4.52

Structure (SMILES): O=C1c2ccccc2C(=O)c2cc3oc(SCCCN4CCCCC4)nc3cc21
- pIC50 [1]: 4.91
- inhibition [2]: Active

Structure (SMILES): O=C(CCN1CCOCC1)Nc1cc2c(cc1O)C(=O)c1ccccc1C2=O
- pIC50 [1]: < 4.52
